Results reported in patent US12092575B2, “Measuring method of cell migration using the rate of cell invasion” (MBD Co., Ltd., priority 2021, dated 2024).

Tests used:
[1] = tested on: #1 HNSCC PDC; assay: Pillar-based spheroid invasion assay of #1 HNSCC PDC; type: cell-based, human; conditions: #1 HNSCC PDC spheroids, 80 μM of drugs, three days
[2] = tested on: A549 cell line; assay: Pillar-based spheroid invasion assay of A549 cell line
Protocol: Before using the pillar array, the pillar array and cell-encapsulation apparatus were immersed in 70% ethanol for 30 min for sterilization followed by complete drying at room temperature.

[3] = tested on: A549 cells; assay: Transwell invasion assay (Matrigel-coated membrane); type: cell-based; conditions: 1 μM docetaxel, 24 h, Matrigel-coated membrane (FIG. 6)
Protocol: In the present invention, transwell for conventional invasion assay was used. The membrane of the transwell was coated with 100 μl Matrigel (Corning, NY, USA) basement membrane matrix diluted 9-fold. A549 cells (2×10^4 cells/well) were seeded in the insert of the transwell with RPMI media without FBS. 500 μl RPMI media with FBS was filled in the wells to serve as a chemoattractant. After 24 h of cell incubation, migrated cells on the insert were fixed with 95% ethyl alcohol and then stained with 0.5% crystal violet.
Based on the fluorescence intensity, spheroid was identified, and invasive cells were calculated by subtracting the spheroid area from the total cell area. A549 cells formed a spheroid two days after cell aggregation and incubation. Cells surrounding spheroid migrated for an additional three days of culture. To check the invasiveness of A549 cells, the present inventors conducted invasion assay using Transwell (24-well transwell, Cat. No. 3422, Corning, USA) in no drug and 1 μM Docetaxel.

SMILES	cell migration/invasion (spheroid morphology) [1]	cell invasion ([2]; A549 spheroids on pillar)	size of a single big spheroid (spheroid area) ([2]; A549 spheroids on pillar (FIG. 8))	total cell area, which means cell viability ([2]; A549 spheroids on pillar, as a function of docetaxel concentration (FIG. 7))	invasion ratio ([2]; A549 spheroids on pillar, docetaxel treated, control 52% (FIG. 9))	invasion of A549 in the Transwell [3]
N.N.[Cl][Pt][Cl] [cisplatin, Cisplatin]	effectively inhibited cell migration/invasion					
CN[C@@H]1C[C@H]2O[C@@](C)([C@@H]1OC)n1c3ccccc3c3c4c(c5c6ccccc6n2c5c31)C(=O)NC4 [staurosporine, Staurosporine]	effectively inhibited cell migration/invasion					
CC(=O)O[C@@]12CO[C@@H]1C[C@H](O)[C@@]1(C)C(=O)[C@H](O)C3=C(C)[C@@H](OC(=O)[C@H](O)[C@@H](NC(=O)OC(C)(C)C)c4ccccc4)C[C@@](O)([C@@H](OC(=O)c4ccccc4)[C@H]21)C3(C)C [docetaxel, Docetaxel]	effectively inhibited cell migration/invasion	inhibited cell invasion	reduced the size of a single big spheroid	decreased depending on docetaxel concentration	lower than 35%	inhibited the invasion
